Measured values from patent US10391080B2, “Ketorolac for the treatment of cancer” (Cipla Limited, priority 2016, dated 2019).

Legend:
RXF 1183L = experiment: In vitro 3D combination study, clonogenic assay, Bliss independence; assay type: cell-based, human; settings: RXF 1183L cells seeded in soft agar, concentration-dependent
Procedure: (§1) The objective of this study was to assess anti-tumor efficacy of ketorolac in combination with sunitinib in a 5×5 matrix combination format against tumor cell lines of renal cancer using a clonogenic assay with image analysis as read-out.
(§2) The clonogenic assay was carried out in a 96 well plate format using ultra low attachment plates. For each test cells were prepared as described above, and assay plates were prepared as follows: each test well contained a layer of semi-solid medium with tumor cells (50 μl), and a second layer of medium supernatant with or without test compounds (100 μl). The cell layer consisted of 3×10^3 to 1×10^4 tumor cells per well, which were seeded in 50 μl/well cell culture medium (IMDM, supplemented with 20% (v/v) fetal calf serum, 0.01% (w/v) gentamicin, and 0.4% (w/v) agar). The soft agar layer was immediately covered with 90 μl of the same culture medium without agar. After 24 h the test compounds were added after serial dilution in IMDM and transfer in cell culture medium, and left on the cells for the duration of the experiment (continuous exposure, 100 μL total drug overlay). Every plate included six untreated control wells and drug-treated groups in a layout as shown above. […] At the time of maximum colony formation, counts were performed with an automatic image analysis system (Celllnsight NXT, Thermo Scientific). […]

RXF A-498 = experiment: as above; assay type: cell-based, human; settings: RXF A-498 cells seeded in soft agar, concentration-dependent
Procedure: as §1, §2

A498 cells = experiment: In vivo animal efficacy study, subcutaneous A498 tumor fragments; parameters: species or system female athymic nude mice
Procedure: 10 Healthy female athymic nude mice were recruited for the donor cell inoculation. Animals were subcutaneously injected at flank region with 10 million A498 cells suspended in 200 μl of media and matrigel. Animals were monitored for solid tumor growth. […] Tumors were fragmented in to ˜30 mg size. […] [table] The tumor sizes were measured weekly twice from the date of tumor appearance till the end of the experiment. Tumor size was measured by digital vernier caliper (MITUTOYO) by measuring length (L=longest axis) and width (W=shortest axis). Tumor Volume was calculated using the formula: […] Form the tumor volume data mean tumor volume and % tumor growth inhibition (% TGI) were calculated (SEM=standard error of mean).

[1] = Ketorolac 5 mg/kg p.o. q.d. × 21 (G3), day 1
[2] = Ketorolac 5 mg/kg p.o. q.d. × 21 (G3), day 6
[3] = Ketorolac 5 mg/kg p.o. q.d. × 21 (G3), day 9
[4] = Ketorolac 5 mg/kg p.o. q.d. × 21 (G3), day 13
[5] = Ketorolac 5 mg/kg p.o. q.d. × 21 (G3), day 16
[6] = Ketorolac 10 mg/kg p.o. q.d. × 21 (G4), day 1
[7] = Ketorolac 10 mg/kg p.o. q.d. × 21 (G4), day 6
[8] = Ketorolac 10 mg/kg p.o. q.d. × 21 (G4), day 9
[9] = Ketorolac 10 mg/kg p.o. q.d. × 21 (G4), day 13
[10] = Ketorolac 10 mg/kg p.o. q.d. × 21 (G4), day 16

For `O=C(c1ccccc1)c1ccc2n1CCC2C(=O)O` (racemic) [Ketorolac, (±)-5-benzoyl-2,3-dihydro-1H-pyrrolizine-1-carboxylic acid], the “Colony formation, single agent” value (RXF 1183L) was “inhibited colony formation”, the “Colony formation, single agent” value (RXF A-498) was “inhibited colony formation” and the “Mean Tumor Volume” value (A498 cells; [1]) was 145.65 mm^3. The “Tumor Growth Inhibition (% TGI)” value (A498 cells; [1]) was 1.29%, the “Mean Tumor Volume” value (A498 cells; [2]) was 174.13 mm^3 and the “Tumor Growth Inhibition (% TGI)” value (A498 cells; [2]) was 47.54%. The “Mean Tumor Volume” value (A498 cells; [3]) was 297.42 mm^3, the “Tumor Growth Inhibition (% TGI)” value (A498 cells; [3]) was 35.87% and the “Mean Tumor Volume” value (A498 cells; [4]) was 460.01 mm^3. The “Tumor Growth Inhibition (% TGI)” value (A498 cells; [4]) was 25.45%, the “Mean Tumor Volume” value (A498 cells; [5]) was 559.69 mm^3 and the “Tumor Growth Inhibition (% TGI)” value (A498 cells; [5]) was 41.77%. The “Mean Tumor Volume” value (A498 cells; Ketorolac 5 mg/kg p.o. q.d. × 21 (G3), day 20) was 626.62 mm^3, the “Mean Tumor Volume” value (A498 cells; [6]) was 145.79 mm^3 and the “Tumor Growth Inhibition (% TGI)” value (A498 cells; [6]) was 1.20%. For the same compound, the “Mean Tumor Volume” value (A498 cells; [7]) was 168.10 mm^3, the “Tumor Growth Inhibition (% TGI)” value (A498 cells; [7]) was 49.36% and the “Mean Tumor Volume” value (A498 cells; [8]) was 223.78 mm^3. For the same compound, the “Tumor Growth Inhibition (% TGI)” value (A498 cells; [8]) was 51.75%, the “Mean Tumor Volume” value (A498 cells; [9]) was 215.58 mm^3 and the “Tumor Growth Inhibition (% TGI)” value (A498 cells; [9]) was 65.06%. The “Mean Tumor Volume” value (A498 cells; [10]) was 300.44 mm^3, the “Tumor Growth Inhibition (% TGI)” value (A498 cells; [10]) was 68.75% and the “Mean Tumor Volume” value (A498 cells; Ketorolac 10 mg/kg p.o. q.d. × 21 (G4), day 20) was 336.27 mm^3.
